The results in this text go back to paper PMC9212912 (Structure (London, England : 1993), 2022).

For orientation: inhibition means the relative decrease from the control value, in per cent.

SMILES strings stand for the structures.

The assay relates to SARS-CoV-2 (Delta variant, pangolin linage B.1.617.2). The experiment in a line: microbe, parasite or virus in culture. It counts as cell-based.

`Cc1sc2c(c1C)C(c1ccc(Cl)cc1)=N[C@@H](CC(=O)OC(C)(C)C)c1nnc(C)n1-2` [JQ1]: the “Inhibition of SARS-CoV-2 infection in Calu-3 cells” value (0.01 µM) is 72%.
For the compound `Cc1sc2c(c1C)C(c1ccc(Cl)cc1)=N[C@@H](CC(=O)Nc1ccc(O)cc1)c1nnc(C)n1-2` [OTX015], the inhibition at 0.01 µM (Severe acute respiratory syndrome coronavirus 2, Calu-3, 24 h, read-out: Inhibition of SARS-CoV-2 infection in Calu-3 cells) turned out to be 69%.
